Target: FAAH (Homo sapiens (Human), UniProt O00519)
Assay: Assay Method 1: FAAH assay, T84 cell homogenate, 3H-anandamide hydrolysis
Format: biochemical
Details: 3H-AEA tracer 200 nM, 1 h at rt
Procedure: T84 frozen pellets (contents of 1-4×15 cm culture dishes) were homogenized in 300 mL of FAAH assay buffer (125 mM Tris, 1 mM EDTA, 0.2% glycerol, 0.02% Triton X-100, 0.4 mM Hepes, pH 9). The assay mixture was prepared from 50 μL of the cell homogenate, 10 μL of the test compound, and 40 μL of anandamide [1-3H-ethanolamine] (^3H-AEA; Perkin-Elmer, 10.3 Ci/mmol), which was added last, for a final tracer concentration of 200 nM. The reaction mixture was incubated at rt for 1 hour (h). During the incubation, 96-well Multiscreen filter plates (catalog number MAFCNOB50; Millipore, Bedford, Mass., USA) were loaded with 25 μL of activated charcoal (Multiscreen column loader, catalog number MACL09625, Millipore) and washed once with 100 μL of MeOH. Also during the incubation, 96-well DYNEX MicroLite plates (catalog number NL510410) were loaded with 100 μL of MicroScint40 (catalog number 6013641, Packard Bioscience, Meriden, Conn., USA). After the 1 h incubation, 60 μL of the reaction mixture were transferred to the charcoal plates, which were then assembled on top of the DYNEX plates using Centrifuge Alignment Frames (catalog number MACF09604, Millipore). The unbound, labeled ethanolamine was centrifuged through to the bottom plate (5 min at 2000 rpm), which was preloaded with the scintillant, as described above. The plates were sealed and left at rt for 1 h before counting on a Hewlett Packard TopCount.

Sequence of FAAH (O00519 whole entry): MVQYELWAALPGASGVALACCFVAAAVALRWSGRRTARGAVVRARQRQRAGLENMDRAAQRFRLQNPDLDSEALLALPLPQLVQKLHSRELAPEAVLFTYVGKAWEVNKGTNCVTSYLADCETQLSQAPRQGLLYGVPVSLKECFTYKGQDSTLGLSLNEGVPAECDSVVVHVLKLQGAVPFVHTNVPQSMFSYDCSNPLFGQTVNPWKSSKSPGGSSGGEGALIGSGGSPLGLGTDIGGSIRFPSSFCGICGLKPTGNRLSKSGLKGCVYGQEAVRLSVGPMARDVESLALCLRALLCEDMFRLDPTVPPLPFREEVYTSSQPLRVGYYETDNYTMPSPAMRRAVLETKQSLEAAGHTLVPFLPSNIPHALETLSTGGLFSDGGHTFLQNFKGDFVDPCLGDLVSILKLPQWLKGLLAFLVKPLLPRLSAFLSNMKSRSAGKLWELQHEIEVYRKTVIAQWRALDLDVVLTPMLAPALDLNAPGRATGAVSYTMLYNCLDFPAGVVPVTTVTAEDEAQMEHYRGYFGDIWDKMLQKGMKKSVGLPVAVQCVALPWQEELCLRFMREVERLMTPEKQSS

| Compound | IC50 [nM] |
| --- | --- |
| O=C(Nc1ccccc1)N1CCN(Cc2cccc(Br)c2)CC1 [Example C, 4-(3-Bromo-benzyl)-piperazine-1-carboxylic acid phenylamide, reference compound] | 280 |
| O=C(Nc1ccccc1)N1CCN(Cc2csc3ccccc23)CC1 [Example 31, 4-Benzo[b]thiophen-3-ylmethyl-piperazine-1-carboxylic acid phenylamide] | 200 |
| Cc1cccc(NC(=O)N2CCN(Cc3cnc4ccccc4c3)CC2)c1 [Example 109, 4-Quinolin-3-ylmethyl-piperazine-1-carboxylic acid m-tolylamide] | 200 |
| COc1ccc(CN2CCN(C(=O)Nc3ccccc3)CC2)cc1OC [Example 44, 4-(3,4-Dimethoxy-benzyl)-piperazine-1-carboxylic acid phenylamide] | 4000 |
| O=C(Nc1ccccn1)N1CCN(Cc2ccc(Br)c(Br)c2)CC1 [Example 117, 4-(3,4-Dibromo-benzyl)-piperazine-1-carboxylic acid pyridin-2-ylamide] | 360 |
| O=C(Nc1ccccc1)N1CCN(Cc2ccc(/C=C/c3ccccc3)cc2)CC1 [Example 81, 4-(4-Styryl-benzyl)-piperazine-1-carboxylic acid phenylamide] | 6000 |
| O=C(Nc1ccccc1)N1CCN(Cc2ccccc2)CC1 [Example J, 4-Benzyl-piperazine-1-carboxylic acid phenylamide, reference compound] | 2000 |
| CCc1ccc(CN2CCN(C(=O)Nc3ccccc3)CC2)cc1 [Example 33, 4-(4-Ethyl-benzyl)-piperazine-1-carboxylic acid phenylamide] | 280 |
| COc1ccccc1NC(=O)N1CCN(Cc2cnc3ccccc3c2)CC1 [Example 102, 4-Quinolin-3-ylmethyl-piperazine-1-carboxylic acid (2-methoxy-phenyl)-amide] | 540 |
| O=C(Nc1ccccc1)N1CCN(Cc2ccc3cc[nH]c3c2)CC1 [Example 73, 4-(1H-Indol-6-ylmethyl)-piperazine-1-carboxylic acid phenylamide] | 29 |
| O=C(Nc1ccccc1)N1CCN(Cc2ccc(OC3CCCCC3)cc2)CC1 [Example 119, 4-(4-Cyclohexyloxy-benzyl)-piperazine-1-carboxylic acid phenylamide] | 1000 |
| O=C(Nc1ccc(Cl)cc1)N1CCN(Cc2ccc(Br)c(Br)c2)CC1 [Example 95, 4-(3,4-Dibromo-benzyl)-piperazine-1-carboxylic acid (4-chloro-phenyl)-amide] | 500 |
| Cn1ccc2cc(CN3CCN(C(=O)Nc4ccccc4)CC3)ccc21 [Example 53, 4-(1-Methyl-1H-indol-5-ylmethyl)-piperazine-1-carboxylic acid phenylamide] | 230 |
| O=C(Nc1ccccc1)N1CCN(Cc2ccc(-c3ccccc3)cc2)CC1 [Example 49, 4-Biphenyl-4-ylmethyl-piperazine-1-carboxylic acid phenylamide] | 4500 |
| CCOc1ccc(CN2CCN(C(=O)Nc3ccccc3)CC2)cc1 [Example 129, 4-(4-Ethoxy-benzyl)-piperazine-1-carboxylic acid phenylamide] | 2000 |
| O=C(Nc1ccccc1)N1CCN(Cc2ccccc2Br)CC1 [Example 84, 4-(2-Bromo-benzyl)-piperazine-1-carboxylic acid phenylamide] | 2500 |
| O=C(Nc1ccccc1Cl)N1CCN(Cc2ccc(Br)c(Br)c2)CC1 [Example 93, 4-(3,4-Dibromo-benzyl)-piperazine-1-carboxylic acid (2-chloro-phenyl)-amide] | 460 |
| COc1cccc(NC(=O)N2CCN(Cc3cnc4ccccc4c3)CC2)c1 [Example 110, 4-Quinolin-3-ylmethyl-piperazine-1-carboxylic acid (3-methoxy-phenyl)-amide] | 200 |
| O=C(Nc1ccccc1)N1CCN(Cc2cnc3ccc(Cl)cc3c2)CC1 [Example 69, 4-(6-Chloro-quinolin-3-ylmethyl)-piperazine-1-carboxylic acid phenylamide] | 23 |
| O=C(Nc1ccccc1)N1CCN(Cc2ccc(Br)cc2)CC1 [Example 27, 4-(4-Bromo-benzyl)-piperazine-1-carboxylic acid phenylamide] | 69 |
| O=C(Nc1ccccc1)N1CCN(C2CCc3cc(Br)ccc3C2)CC1 (stereo not drawn) [Example L, 4-(6-Bromo-1,2,3,4-tetrahydro-naphthalen-2-yl)-piperazine-1-carboxylic acid phenylamide, reference compound] | 370 |

| Compound | IC50 [nM] |
| --- | --- |
| Cc1cccc(NC(=O)N2CCC(Cc3ccccc3)CC2)c1 [Example 114, 4-Benzyl-piperidine-1-carboxylic acid m-tolylamide] | 2300 |
| CCOc1cccc(CN2CCN(C(=O)Nc3ccccc3)CC2)c1 [Example 122, 4-(3-Ethoxy-benzyl)-piperazine-1-carboxylic acid phenylamide] | 220 |
| O=C(Nc1ccccc1)N1CCN(Cc2ccccc2OCc2ccccc2)CC1 [Example K, 4-(2-Benzyloxy-benzyl)-piperazine-1-carboxylic acid phenylamide, reference compound] | > 10000 |
| CCn1c2ccccc2c2cc(CN3CCN(C(=O)Nc4ccccc4)CC3)ccc21 [Example 80, 4-(9-Ethyl-9H-carbazol-3-ylmethyl)-piperazine-1-carboxylic acid phenylamide] | 330 |
| O=C(Nc1ccccc1)N1CCN(Cc2cccc(OCCN3CCCCC3)c2)CC1 [Example 126, 4-[3-(2-Piperidin-1-yl-ethoxy)-benzyl]-piperazine-1-carboxylic acid phenylamide] | 2000 |
| COc1cccc(NC(=O)N2CCN(Cc3ccc(Br)c(Br)c3)CC2)c1 [Example 87, 4-(3,4-Dibromo-benzyl)-piperazine-1-carboxylic acid (3-methoxy-phenyl)-amide] | 48 |
| O=C(Nc1ccccc1)N1CCN(Cc2ccc3cc(Cl)ccc3n2)CC1 [Example 54, 4-(6-Chloro-quinolin-2-ylmethyl)-piperazine-1-carboxylic acid phenylamide] | 170 |
| Cc1ccc(CN2CCN(C(=O)Nc3ccccc3)CC2)cc1C [Example D, 4-(3,4-Dimethyl-benzyl)-piperazine-1-carboxylic acid phenylamide, reference compound] | 630 |
| O=C(Nc1ccccc1)N1CCN(Cc2ccc(F)c(Br)c2)CC1 [Example 29, 4-(3-Bromo-4-fluoro-benzyl)-piperazine-1-carboxylic acid phenylamide] | 120 |
| CS(=O)(=O)Oc1cccc(CN2CCN(C(=O)Nc3ccccc3)CC2)c1 [Example 137, Methanesulfonic acid 3-(4-phenylcarbamoyl-piperazin-1-ylmethyl)-phenyl ester] | 1000 |
| O=C(Nc1ccccc1)N1CCN(Cc2cccc(Oc3cc4ccccc4c4ccccc34)c2)CC1 [Example 132, 4-[3-(Phenanthren-9-yloxy)-benzyl]-piperazine-1-carboxylic acid phenylamide] | 3000 |
| COC(=O)c1ccc(Oc2cccc(CN3CCN(C(=O)Nc4ccccc4)CC3)c2)cc1 [Example 133, 4-[3-(4-Phenylcarbamoyl-piperazin-1-ylmethyl)-phenoxy]-benzoic acid methyl ester] | 50 |
| O=C(Nc1ccccc1Cl)N1CCC(Cc2ccccc2)CC1 [Example 115, 4-Benzyl-piperidine-1-carboxylic acid (2-chloro-phenyl)-amide] | 4000 |
| O=C(Nc1ccccc1)N1CCN(Cc2cccc(Oc3cc(Cl)cc(Cl)c3)c2)CC1 [Example 78, 4-[3-(3,5-Dichloro-phenoxy)-benzyl]-piperazine-1-carboxylic acid phenylamide] | 5000 |
| COc1ccc(Oc2cccc(CN3CCN(C(=O)Nc4ccccc4)CC3)c2)cc1 [Example 65, 4-[3-(4-Methoxy-phenoxy)-benzyl]-piperazine-1-carboxylic acid phenylamide] | 9 |
| Cc1cccc(NC(=O)N2CCN(Cc3ccc(Br)c(Br)c3)CC2)c1 [Example 88, 4-(3,4-Dibromo-benzyl)-piperazine-1-carboxylic acid m-tolylamide] | 100 |
| O=C(Nc1ccccc1)N1CCN(Cc2cccc(Oc3cccc(Cl)c3)c2)CC1 [Example 130, 4-[3-(3-Chloro-phenoxy)-benzyl]-piperazine-1-carboxylic acid phenylamide] | 160 |
| O=C(Nc1ccccc1)N1CCN(Cc2cccc3ccccc23)CC1 [Example 40, 4-Naphthalen-1-ylmethyl-piperazine-1-carboxylic acid phenylamide] | 1100 |
| O=C(Nc1ccccc1)N1CCN(Cc2cccc(OCc3ccccc3)c2)CC1 [Example 25, 4-(3-Benzyloxy-benzyl)-piperazine-1-carboxylic acid phenylamide] | 57 |
| CS(=O)(=O)c1ccc(Oc2cccc(CN3CCN(C(=O)Nc4ccccc4)CC3)c2)cc1 [Example 134, 4-[3-(4-Methanesulfonyl-phenoxy)-benzyl]-piperazine-1-carboxylic acid phenylamide] | 65 |
| O=C(Nc1ccccc1)N1CCN(Cc2ccc3c(c2)Cc2ccccc2-3)CC1 [Example 79, 4-(9H-Fluoren-2-ylmethyl)-piperazine-1-carboxylic acid phenylamide] | 8000 |
